Measurements from patent US10392368B2, “Pyrazolo and triazolo bicyclic compounds as JAK kinase inhibitors” (THERAVANCE BIOPHARMA R&D IP, LLC, priority 2017, dated 2019).

Experiments:
JAK1 = biological target: T1, JAK1 (Homo sapiens, UniProt P23458); experiment: Biochemical JAK1 kinase assay (LanthaScreen); details: for Ki: read-out: JAK 1 (pKi) (converted)
T1 construct: GST; purchased Life Technologies
Summary of the method: (§1)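 Compounds were preincubated with the GST-tagged kinase and GFP-labelled STAT1 peptide for one hour before ATP initiated a one-hour reaction at ambient temperature. Phosphorylation was quantified by TR-FRET with a Tb-labelled pTyr701 antibody. Ki values were derived from IC50 using Cheng-Prusoff.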

[1] = tested on: IL-2 stimulated pSTAT5 in Tall-1 T cells; experiment: Cellular JAK3 potency assay: inhibition of IL-2 stimulated pSTAT5 in Tall-1 T cells; type: cell-based, human; details: for IC50: Homo sapiens, TALL-1, IL-2 stimulated pSTAT5, Tall-1 T cells, read-out: Tall-1 (pIC50) (converted)
Summary of the method: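 Tall-1 human T cells (45,000/well) in phenol red-free DMEM with 10% FBS were preincubated with compound 1 h at 37 °C, then stimulated with IL-2 (final 300 ng/ml) for 30 min. Lysate pSTAT5 read by AlphaLisa; IC50 from inhibition curves, reported as pIC50 (mean±SD).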

JAK3 = biological target: T2, JAK3 (Homo sapiens, UniProt P52333); experiment: Biochemical JAK3 kinase assay (LanthaScreen); parameters: GST; purchased Life Technologies; details: for Ki: read-out: JAK 3 (pKi) (converted)
T2 sequence (P52333 1-1124): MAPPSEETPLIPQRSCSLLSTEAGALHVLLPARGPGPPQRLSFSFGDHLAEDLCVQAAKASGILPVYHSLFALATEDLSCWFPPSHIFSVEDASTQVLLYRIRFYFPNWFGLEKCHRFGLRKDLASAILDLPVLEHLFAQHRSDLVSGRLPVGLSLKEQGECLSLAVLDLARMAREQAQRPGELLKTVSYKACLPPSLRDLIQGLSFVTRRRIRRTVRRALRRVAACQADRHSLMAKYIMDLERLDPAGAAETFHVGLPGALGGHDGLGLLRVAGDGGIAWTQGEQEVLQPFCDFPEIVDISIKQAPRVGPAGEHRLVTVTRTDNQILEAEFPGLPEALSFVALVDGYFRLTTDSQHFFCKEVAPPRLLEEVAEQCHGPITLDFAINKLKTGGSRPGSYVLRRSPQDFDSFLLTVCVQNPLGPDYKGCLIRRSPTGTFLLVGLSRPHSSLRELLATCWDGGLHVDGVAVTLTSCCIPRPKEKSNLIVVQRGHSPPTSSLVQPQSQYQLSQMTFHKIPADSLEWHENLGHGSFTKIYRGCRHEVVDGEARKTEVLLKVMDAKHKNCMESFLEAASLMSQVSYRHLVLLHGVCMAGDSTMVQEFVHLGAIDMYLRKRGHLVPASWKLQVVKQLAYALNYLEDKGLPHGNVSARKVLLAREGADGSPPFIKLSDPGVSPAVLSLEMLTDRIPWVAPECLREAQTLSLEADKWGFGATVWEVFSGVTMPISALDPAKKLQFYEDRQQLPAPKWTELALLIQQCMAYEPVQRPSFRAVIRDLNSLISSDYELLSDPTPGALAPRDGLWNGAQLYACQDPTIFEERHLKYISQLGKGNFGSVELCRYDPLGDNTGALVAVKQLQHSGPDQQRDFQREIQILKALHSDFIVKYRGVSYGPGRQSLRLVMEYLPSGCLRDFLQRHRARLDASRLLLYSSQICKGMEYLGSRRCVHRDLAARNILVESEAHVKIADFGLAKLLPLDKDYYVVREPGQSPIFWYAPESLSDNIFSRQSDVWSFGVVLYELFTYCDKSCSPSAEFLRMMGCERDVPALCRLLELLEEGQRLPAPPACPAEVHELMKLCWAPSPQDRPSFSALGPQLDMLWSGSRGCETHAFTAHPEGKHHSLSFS
Summary of the method: as §1

[2] = IL-2 stimulated pSTAT5 in Tall-1 T cells
[3] = selectivity: difference of pKi JAK3 and pKi JAK1
[4] = IL-2 stimulated pSTAT5, Tall-1 T cells
[5] = selectivity JAK3 over JAK1, difference of pKi

T1 sequence (P23458 whole entry): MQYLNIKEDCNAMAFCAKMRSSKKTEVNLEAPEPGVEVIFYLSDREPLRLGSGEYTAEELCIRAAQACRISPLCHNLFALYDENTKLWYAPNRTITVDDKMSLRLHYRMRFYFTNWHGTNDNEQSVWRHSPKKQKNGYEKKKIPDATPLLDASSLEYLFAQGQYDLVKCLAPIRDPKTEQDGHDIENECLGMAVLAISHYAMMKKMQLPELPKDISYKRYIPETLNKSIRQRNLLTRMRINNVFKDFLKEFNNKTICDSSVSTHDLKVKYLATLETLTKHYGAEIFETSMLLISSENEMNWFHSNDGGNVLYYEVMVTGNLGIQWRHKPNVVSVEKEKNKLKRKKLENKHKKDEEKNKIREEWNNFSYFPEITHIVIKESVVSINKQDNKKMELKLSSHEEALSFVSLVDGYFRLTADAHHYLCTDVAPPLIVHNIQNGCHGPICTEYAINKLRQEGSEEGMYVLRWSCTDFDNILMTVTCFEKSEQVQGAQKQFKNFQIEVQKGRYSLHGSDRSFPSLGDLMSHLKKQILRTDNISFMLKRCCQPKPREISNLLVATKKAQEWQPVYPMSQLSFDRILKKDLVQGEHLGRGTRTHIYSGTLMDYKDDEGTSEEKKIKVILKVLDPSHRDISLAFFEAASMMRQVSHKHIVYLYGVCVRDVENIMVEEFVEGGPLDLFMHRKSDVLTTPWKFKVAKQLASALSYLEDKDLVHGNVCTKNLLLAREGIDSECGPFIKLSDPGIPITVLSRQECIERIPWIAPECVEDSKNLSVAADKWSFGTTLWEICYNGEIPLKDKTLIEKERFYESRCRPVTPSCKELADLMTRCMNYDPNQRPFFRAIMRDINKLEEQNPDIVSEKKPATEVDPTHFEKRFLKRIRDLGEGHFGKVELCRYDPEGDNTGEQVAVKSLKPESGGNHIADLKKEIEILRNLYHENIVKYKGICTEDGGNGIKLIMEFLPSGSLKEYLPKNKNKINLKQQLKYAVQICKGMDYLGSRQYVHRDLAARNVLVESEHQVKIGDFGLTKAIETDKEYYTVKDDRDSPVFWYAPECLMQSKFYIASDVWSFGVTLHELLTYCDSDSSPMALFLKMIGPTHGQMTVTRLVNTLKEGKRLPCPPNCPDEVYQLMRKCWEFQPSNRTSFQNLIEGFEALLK

| Structure (SMILES) | JAK 1 (pKi) (JAK1) | Tall-1 (pIC50) [1, 2] | JAK 3 (pKi) (JAK3) | JAK3 (pKi)-JAK1 (pKi) (JAK3; [3]) | Tall-1 (pIC50) [1, 4] | JAK3 (pKi)-JAK1 (pKi) (JAK3; [5]) | Ki (JAK1) [nM] | IC50 [1] [nM] | Ki (JAK3) [nM] |
| --- | --- | --- | --- | --- | --- | --- | --- | --- | --- |
| C=CC(=O)N1CC(N(C)c2cc(-c3ccc(O)cc3)cc3[nH]ncc23)C1 [Compound 5-9] | E (a pKi value of 7 or below (Ki of 100 nM or above)) | C (a pIC50 value between 6 and 6.7 (IC50 between 1 μM and 200 nM)) | B (a pKi value between 9 and 10 (Ki between 1 nM and 0.1 nM)) | A (a value of 3 or above) | – | – | – | – | – |
| CN(C)C/C=C/C(=O)N1CC(C)(Oc2cc(-c3ccc(O)cc3)cc3[nH]ncc23)C1 [Compound 5-11] | E (a pKi value of 7 or below (Ki of 100 nM or above)) | B (a pIC50 value between 6.7 (included) and 7.5 (IC50 between 200 nM and 32 nM)) | B (a pKi value between 9 and 10 (Ki between 1 nM and 0.1 nM)) | A (a value of 3 or above) | – | – | – | – | – |
| CN(C)C/C=C/C(=O)N1CC(Oc2cc(-c3ccc(O)cc3)cc3[nH]ncc23)(C2CC2)C1 [Compound 5-13] | E (a pKi value of 7 or below (Ki of 100 nM or above)) | B (a pIC50 value between 6.7 (included) and 7.5 (IC50 between 200 nM and 32 nM)) | B (a pKi value between 9 and 10 (Ki between 1 nM and 0.1 nM)) | B (a value of 2.3 to 3) | – | – | – | – | – |
| C=CC(=O)N1CC(Oc2cc(-c3ccc(O)cc3)nc3[nH]ncc23)C1 [Compound 5-15] | E (a pKi value of 7 or below (Ki of 100 nM or above)) | B (a pIC50 value between 6.7 (included) and 7.5 (IC50 between 200 nM and 32 nM)) | A (a pKi value≥10 (Ki≤0.1 nM)) | A (a value of 3 or above) | – | – | – | – | – |
| C=CC(=O)N1CC(Oc2nc(-c3ccc(O)cc3)nc3[nH]ncc23)C1 [Compound 5-20] | E (a pKi value of 7 or below (Ki of 100 nM or above)) | – | B (a pKi value between 9 and 10 (Ki between 1 nM and 0.1 nM)) | – | C (a pIC50 value between 6 and 6.7 (IC50 between 1 μM and 200 nM)) | A (a value of 3 or above) | – | – | – |
| C=CC(=O)N1CC(C)(Oc2cc(-c3ccc(O)c(F)c3)cc3[nH]ncc23)C1 [Compound 5-24] | E (a pKi value of 7 or below (Ki of 100 nM or above)) | – | B (a pKi value between 9 and 10 (Ki between 1 nM and 0.1 nM)) | – | B (a pIC50 value between 6.7 (included) and 7.5 (IC50 between 200 nM and 32 nM)) | A (a value of 3 or above) | – | – | – |
| CN(C)C/C=C/C(=O)N1CC(Oc2cc(-c3ccc(O)cc3)cc3[nH]ncc23)(C(F)(F)F)C1 [Compound 5-25] | E (a pKi value of 7 or below (Ki of 100 nM or above)) | – | B (a pKi value between 9 and 10 (Ki between 1 nM and 0.1 nM)) | – | A (a pIC50 value≥7.5 (IC50≤32 nM)) | A (a value of 3 or above) | – | – | – |
| C=CC(=O)N1CC(Oc2cc(-c3ccc(O)cc3)cc3[nH]ncc23)(C(F)(F)F)C1 [Compound 5-26] | E (a pKi value of 7 or below (Ki of 100 nM or above)) | – | B (a pKi value between 9 and 10 (Ki between 1 nM and 0.1 nM)) | – | C (a pIC50 value between 6 and 6.7 (IC50 between 1 μM and 200 nM)) | B (a value of 2.3 to 3) | – | – | – |
| CN(C)C/C=C/C(=O)N1CCC(Oc2cc(-c3ccc(O)cc3)cc3[nH]ncc23)CC1 [Compound 6-1] | – | – | – | – | – | B (a value of 2.3 to 3) | 10 to 100 | 31.6 to 200 | < 0.1 |
| C=CC(=O)N1CCC(C)(Oc2cc(-c3ccc(O)c(Cl)c3)cc3[nH]ncc23)CC1 [Compound 6-5] | E (a pKi value of 7 or below (Ki of 100 nM or above)) | – | B (a pKi value between 9 and 10 (Ki between 1 nM and 0.1 nM)) | – | A (a pIC50 value≥7.5 (IC50≤32 nM)) | A (a value of 3 or above) | – | – | – |
| C=CC(=O)N1CCC(C)(Oc2cc(-c3ccc(O)c(F)c3)cc3[nH]ncc23)CC1 [Compound 6-7] | – | – | – | – | – | A (a value of 3 or above) | > 100 | < 31.6 | 0.1 to 1 |
